Results on 5 molecules are retold here after patent US9975880B2, “Imidazolidine-2,4-dione dervatives” (IPSEN PHARMA S.A.S., priority 2013, dated 2018).

≈ marks a conversion by molar mass, not a printed value. A value given as a limit tells only on which side of the number the result lay.

One data set relates to VCaP cells. The data set is described as follows: Anti-proliferative activity on VCaP in complete medium. It counts as cell-based. The conditions noted are these: Homo sapiens, Cell-Titer-Glow, read-out: IC50 on the VCaP cells in culture (inhibition of cell proliferation by 50%). The procedure:
• The cells of the VCaP line (ATCC CRL-2876) are seeded at 20000 cells/well in 90 μl of complete medium in 96-well plates coated with poly-D-lysine (Biocoat, Costar). • Treatment of the cells: 24 h after the seeding, the cells are treated with 10 μl/well of compound diluted in the culture medium. The concentrations used are the following: 1 nM/10/30/100/300/1000/3000/10,000 nM. The cells are incubated for 144 h at 37° C., 5% CO2. • Reading: After incubation for […], cell proliferation was determined by Cell-Titer-Glow (CTG) Luminescent Cell Viability Assay • Results: The experiments are carried out in duplicate and the best compounds are tested twice. A concentration value inhibiting the cell proliferation by 50% (IC50) is calculated.

In the next data set the test system is DU145 cells. The data set is described as follows: Anti-proliferative activity on DU145 in complete medium. The format is cell-based. The conditions noted are these: DU145 (no androgen receptor), 144 h, up to 10,000 nM, Cell-Titer-Glow. The method, then:
It is used to evaluate the selectivity of the compounds for androgen receptor expressing cells. No activity of the compounds is expected. • The cells of the DU145 line (ATCC HTB-81) are seeded at 800 cells/well in 90 μl of complete medium in 96-well plates coated with poly-D-lysine (Biocoat, Costar). • Treatment of the cells: 24 h after the seeding, the cells are treated with 10 μl/well of compound diluted in the culture medium. The concentrations used are the following: 1 nM/10/30/100/300/1000/3000/10,000 nM. The cells are incubated for 144 h at 37° C., 5% CO2. • Reading: After incubation for 6 days, cell proliferation was determined by Cell-Titer-Glow (CTG) Luminescent Cell Viability Assay • Results: The experiments are carried out in duplicate and the best compounds are tested twice. A concentration value inhibiting the cell proliferation by 50% (IC50) is calculated.

A short description of another data set: Evaluation of solubility. The conditions noted are these: aqueous buffer, kinetic from dmso stock; 100 mM potassium phosphate buffer pH 7.4, 0.1% DMSO, target 100 μM, 1 hour room temperature, LC-MS/MS. The format is physicochemical. The procedure: Test compounds were prepared as stock solutions at 100 mM in DMSO. The stock solutions were diluted, in duplicate, into 100 mM potassium phosphate buffer (pH 7.4) to a target concentration of 100 μM with a final DMSO concentration of 0.1%. The solutions were shaken at 1000 rpm for 1 hour at room temperature followed by centrifugation for 10 minutes at 1200 rpm to precipitate un-dissolved particles. The supernatants were transferred to new tubes and the samples were further prepared as follows: • Undiluted: 5 μL of supernatant to 95 μL of ACN containing internal standard (IS) • 1:10 diluted: 10 μL of the supernatant into 90 μL K-buffer, mix, then transfer 5 μL of 1:10 diluted samples to 95 μL ACN containing IS • 1:100 diluted: 10 μL of the supernatant into 990 μL K-buffer, mix, then transfer 5 μL of 1:100 diluted samples to 95 μL of ACN containing IS
Samples (undiluted, 1:10 diluted, and 1:100 diluted) along with the standards were analyzed by LC-MS/MS.

The subject of another data set is LNCaP cells. The data set is described as follows: Anti-proliferative activity on LNCaP in complete medium. It counts as cell-based. To be noted: Homo sapiens, 144 h, complete medium, 144 h incubation, Cell-Titer-Glow, read-out: IC50 on the LNCaP cells in culture (inhibition of cell proliferation by 50%). The method, then: The anti-proliferative activity of the compounds of the present invention is determined on LNCaP in complete medium by applying the following experimental procedure:
The LNCaP cell type (ATCC, 1740) originates from a prostate carcinoma. This line expresses the androgen receptor and is hormone-dependent.
Maintenance of the LNCaP line is carried out in complete culture medium: RPMI, 10% of fetal calf serum, 2 mM glutamine, 100 U/ml penicillin, 0.1 mg/ml of streptomycin and 0.01M HEPES, 1 mM sodium pyruvate, […]. • Seeding the plates:
The LNCaP line is seeded at 20,000 cells/well in 90 μl of complete medium in 96-well plates coated with poly-D-lysine (Biocoat, Costar). • Treatment of the cells: 24 h after the seeding, the cells are treated with 10 μl/well of compound diluted in the culture medium. The concentrations used are the following: 1 nM/10/30/100/300/1000/3000/10,000 nM. The cells are incubated for 144 h at 37° C., 5% CO2. • Reading: After incubation for 6 days, cell proliferation was determined by Cell-Titer-Glow (CTG) Luminescent Cell Viability Assay. • Results: The experiments are carried out in duplicate and the best compounds are tested twice. […] Anti-Proliferative Activity on DU145 in Complete Medium

Take `CC1(C)C(=O)N(c2ccc(C#N)c(C(F)(F)F)c2)C(=O)N1C/C=C\CN1CCN(c2ccc(S(C)(=O)=O)c(C(F)(F)F)c2)C1=O` [Example 10, (Z)-4-(4,4-dimethyl-3-(4-(3-(4-(methylsulfonyl)-3-(trifluoromethyl)phenyl)-2-oxoimidazolidin-1-yl)but-2-en-1-yl)-2,5-dioxoimidazolidin-1-yl)-2-(trifluoromethyl)benzonitrile]: the IC50 in the data set with VCaP cells was no more than 5 µM. Also, in the data set on DU145 cells, the “IC50 on DU145 cells (anti-proliferative effect)” value (from here on “IC50 on DU145 cells”) is on record as “no measurable IC50”.
A word on the solubility: it is the concentration that dissolves in the medium under given conditions. Lower therefore signals little dissolved substance. As to `CC1(C)C(=O)N(c2ccc(C#N)c(C(F)(F)F)c2)C(=O)N1C/C=C\CN1CC(c2ccc(S(C)(=O)=O)c(Cl)c2)CC1=O` (stereo not drawn) [Example 14, (Z)-4-(3-(4-(4-(3-chloro-4-(methylsulfonyl)phenyl)-2-oxopyrrolidin-1-yl)but-2-en-1-yl)-4,4-dimethyl-2,5-dioxoimidazolidin-1-yl)-2-(trifluoromethyl)benzonitrile], the IC50 in the data set on VCaP cells was no more than 5 µM. This molecule also had a solubility at 1 h in the data set “Evaluation of solubility” of 24.1 µM (≈ 15 µg/mL). Also, the “IC50 on DU145 cells” value in the data set with DU145 cells is given as “no measurable IC50”.
Consider `CC1(C)C(=O)N(c2ccc(C#N)c(C(F)(F)F)c2)C(=O)N1C/C=C\CN1CCC(c2ccc(C#N)c(C(F)(F)F)c2)C1` (stereo not drawn) [Example 12, (Z)-4-(1-(4-(3-(4-cyano-3-(trifluoromethyl)phenyl)-5,5-dimethyl-2,4-dioxoimidazolidin-1-yl)but-2-en-1-yl)pyrrolidin-3-yl)-2-(trifluoromethyl)benzonitrile], for which the IC50 with VCaP cells was no more than 5 µM; in the data set on LNCaP cells, less than 1.5 µM. In addition, the “IC50 on DU145 cells” value in the data set with DU145 cells is “no measurable IC50”.
`CC1(C)C(=O)N(c2ccc(S(C)(=O)=O)c(C(F)(F)F)c2)C(=O)N1C/C=C\Cn1cc(-c2ccc(S(C)(=O)=O)c(C(F)(F)F)c2)cn1` [Example 3, (Z)-5,5-dimethyl-3-(4-(methylsulfonyl)-3-(trifluoromethyl)phenyl)-1-(4-(4-(4-(methylsulfonyl)-3-(trifluoromethyl)phenyl)-1H-pyrazol-1-yl)but-2-en-1-yl)imidazolidine-2,4-dione]: the IC50 in the data set with VCaP cells was no more than 5 µM; in the data set with LNCaP cells, less than 1.5 µM. The molecule further displayed a solubility at 1 h in the data set “Evaluation of solubility” of 0.2 µM (≈ 0.139 µg/mL). In the data set with DU145 cells, the “IC50 on DU145 cells” value is listed as “no measurable IC50”.
As to `CC1(C)C(=O)N(c2ccc(C#N)c(C(F)(F)F)c2)C(=O)N1C/C=C\CN1CC(c2ccc(S(C)(=O)=O)c(C(F)(F)F)c2)CC1=O` (stereo not drawn) [Example 13, (Z)-4-(4,4-dimethyl-3-(4-(4-(4-(methylsulfonyl)-3-(trifluoromethyl)phenyl)-2-oxopyrrolidin-1-yl)but-2-en-1-yl)-2,5-dioxoimidazolidin-1-yl)-2-(trifluoromethyl)benzonitrile], the IC50 is no more than 5 µM with VCaP cells and less than 1.5 µM with LNCaP cells. The “IC50 on DU145 cells” value in the data set with DU145 cells is “no measurable IC50”.
